The results in this text go back to the Biogen ADME set (Fang et al. 2023).

In brackets after ≈: the same amount, converted by molar mass. Where only a bound is given, the exact number is not on record here.

For the data set the following is noted: for aqueous solubility: pH 6.8.

Turning to `Cc1nc(-c2cccc(-c3ccc(C(=O)NC[C@@H]4CCCN4)cc3)c2)no1`, the MDR1-MDCK efflux ratio was 113; the intrinsic clearance, human liver microsomes was at most 4.74 mL/min/kg; the intrinsic clearance, rat liver microsomes amounted to 30.1 mL/min/kg.

For the molecule `O=C(NC1CC1)c1cccnc1Oc1ccccc1`, the MDR1-MDCK efflux ratio came to 0.592; the intrinsic clearance, human liver microsomes was at most 4.74 mL/min/kg; the intrinsic clearance, rat liver microsomes was 11.7 mL/min/kg; the aqueous solubility (commonly the dissolved amount per volume that the medium holds) was found to be 65.2 µg/mL (≈ 257 µM).

For `N#CCCN(c1ncnc2sccc12)C1CC1`, the MDR1-MDCK efflux ratio came to 0.714; the intrinsic clearance, human liver microsomes was 11 mL/min/kg; the intrinsic clearance, rat liver microsomes stood at 231 mL/min/kg; the aqueous solubility is 39.8 µg/mL (≈ 163 µM).

`COc1cccc2c1OC(C)(C)[C@@H]1C[C@H]3CNCC[C@H]3O[C@@H]21`: the MDR1-MDCK efflux ratio came out at 17.1; the intrinsic clearance, human liver microsomes is at most 4.74 mL/min/kg; the intrinsic clearance, rat liver microsomes was found to be 51.5 mL/min/kg; the aqueous solubility amounted to 53.4 µg/mL (≈ 176 µM).

Consider `Cn1nc(CNC(=O)C2CCC2)c2ccccc21`, for which the MDR1-MDCK efflux ratio was 0.662; the intrinsic clearance, human liver microsomes amounted to 12.5 mL/min/kg; the intrinsic clearance, rat liver microsomes came to 147 mL/min/kg.

As to `COc1ccc(NC(C)=O)cc1NC(=O)CN(Cc1ccccc1)C(C)C`, the MDR1-MDCK efflux ratio came out at 2.21; the intrinsic clearance, human liver microsomes amounted to 1340 mL/min/kg; the intrinsic clearance, rat liver microsomes is 4200 mL/min/kg.

For `CCCC(=O)NCC(=O)Nc1cnc(N2CCN(C)CC2)nc1`, the MDR1-MDCK efflux ratio was 10.9; the intrinsic clearance, human liver microsomes was at most 4.74 mL/min/kg; the intrinsic clearance, rat liver microsomes was at most 10.7 mL/min/kg; the aqueous solubility turned out to be 51.2 µg/mL (≈ 160 µM).

Consider `COc1cccc(Oc2ccc(NC(=O)CN3CCCCC3=O)cn2)c1`, for which the MDR1-MDCK efflux ratio amounted to 13.6; the intrinsic clearance, human liver microsomes was at most 4.74 mL/min/kg; the intrinsic clearance, rat liver microsomes worked out at 76.8 mL/min/kg.

The molecule `CC(C)(C)c1cc(NC(=O)Nc2ccc(-c3cn4c(n3)sc3cc(OCCN5CCOCC5)ccc34)cc2)no1` came in with an aqueous solubility of 0.3 µg/mL (≈ 0.535 µM).

As for `Cc1ccc2c(C(=O)N(C)C)cc(-c3cnc(C(C)C)nc3)nc2c1C`, the MDR1-MDCK efflux ratio was found to be 1.95; the intrinsic clearance, human liver microsomes amounted to 16.7 mL/min/kg; the intrinsic clearance, rat liver microsomes turned out to be 836 mL/min/kg; the aqueous solubility amounted to 2.43 µg/mL (≈ 6.97 µM).

For the molecule `CC(C)C[C@@H](C(N)=O)n1ccnc1-c1cccc2ccccc12`, the MDR1-MDCK efflux ratio was found to be 47.6; the intrinsic clearance, human liver microsomes worked out at 329 mL/min/kg; the intrinsic clearance, rat liver microsomes was found to be 1410 mL/min/kg; the aqueous solubility came out at 32.6 µg/mL (≈ 106 µM).

With `CNc1nc(C)cc(C(=O)Nc2ccc3[nH]ncc3c2)n1`, the MDR1-MDCK efflux ratio worked out at 0.659; the fraction unbound, human plasma was found to be 0.312; the intrinsic clearance, human liver microsomes turned out to be 21.3 mL/min/kg.

On to `CC(C)c1cccc(CN2C(=O)N(C)C3(CCCCC3)C2=O)n1`, for which the MDR1-MDCK efflux ratio is 1.13; the intrinsic clearance, human liver microsomes came to 826 mL/min/kg; the intrinsic clearance, rat liver microsomes was determined as 4200 mL/min/kg; the aqueous solubility was 35 µg/mL (≈ 111 µM).

As to `CCc1cc2c(OCC(=O)N3CCCC3)ncnc2s1`, the intrinsic clearance, human liver microsomes stood at 25.8 mL/min/kg and the intrinsic clearance, rat liver microsomes was 597 mL/min/kg.

Regarding `COCCc1noc(CN2CC(c3ccccc3)(c3ccccc3)CCC2=O)n1`, the MDR1-MDCK efflux ratio was found to be 2.43; the fraction unbound, human plasma was found to be 0.147; the fraction unbound, rat plasma amounted to 0.179; the intrinsic clearance, human liver microsomes came out at 211 mL/min/kg. Further, the intrinsic clearance, rat liver microsomes came to 2010 mL/min/kg.

Regarding `Cc1cc(C)n2nc(C)c(C(=O)NCC3CC3)c2n1`, the MDR1-MDCK efflux ratio was 0.725; the intrinsic clearance, human liver microsomes worked out at 46.7 mL/min/kg; the intrinsic clearance, rat liver microsomes worked out at 106 mL/min/kg.

For the molecule `CN1CCC(NS(=O)(=O)C2CN(C(=O)c3cccc(Cl)c3)C2)CC1`, the MDR1-MDCK efflux ratio worked out at 28.4; the intrinsic clearance, human liver microsomes was 4.94 mL/min/kg; the intrinsic clearance, rat liver microsomes was at most 10.7 mL/min/kg; the aqueous solubility worked out at 56.8 µg/mL (≈ 153 µM).

On to `CCc1ccc2nc(C)cc(C(=O)N3CC(c4cccnc4)C3)c2c1`, for which the MDR1-MDCK efflux ratio came out at 11.2; the intrinsic clearance, human liver microsomes came to 143 mL/min/kg; the intrinsic clearance, rat liver microsomes stood at 656 mL/min/kg; the aqueous solubility was 39.3 µg/mL (≈ 119 µM).

`CCOC(=O)c1c(C)n(C)c2ccc(O)cc12` had an intrinsic clearance, human liver microsomes of 30.8 mL/min/kg and an intrinsic clearance, rat liver microsomes of 166 mL/min/kg.

As for `N#Cc1cccc(CN2CCC=C(CNC(=O)c3cccs3)C2)c1`, the MDR1-MDCK efflux ratio amounted to 2.25; the intrinsic clearance, human liver microsomes turned out to be 56.7 mL/min/kg; the intrinsic clearance, rat liver microsomes stood at 442 mL/min/kg; the aqueous solubility is 52.2 µg/mL (≈ 155 µM).

Take `NCCOc1cccc(CC(=O)N2CCCN(C(=O)C3CCC3)CC2)c1`: the MDR1-MDCK efflux ratio worked out at 5.51; the intrinsic clearance, human liver microsomes is at most 4.74 mL/min/kg; the intrinsic clearance, rat liver microsomes is at most 10.7 mL/min/kg.

On to `CC(=O)N1CCCN(C(=O)Nc2ccc(N(C)C3CCCCC3)c(F)c2)CC1`, for which the MDR1-MDCK efflux ratio was 28.2; the intrinsic clearance, human liver microsomes is 103 mL/min/kg; the intrinsic clearance, rat liver microsomes stood at 924 mL/min/kg; the aqueous solubility is 67.7 µg/mL (≈ 173 µM).

`O=C(NCC1CCC2(CC1)OCCO2)c1[nH]nc2c1CCCC2`: the MDR1-MDCK efflux ratio was found to be 5.92; the intrinsic clearance, human liver microsomes was 6.88 mL/min/kg; the intrinsic clearance, rat liver microsomes came out at 1270 mL/min/kg.

In turn, `c1ccc(Cc2cccc3cc4c(nc23)OCCNC4)cc1` displayed an intrinsic clearance, human liver microsomes of 24.5 mL/min/kg; an intrinsic clearance, rat liver microsomes of 1120 mL/min/kg; an aqueous solubility of 47.8 µg/mL (≈ 165 µM).

For the molecule `CCOc1cc(N(C)CC2CCN(C)CC2)ncn1`, the MDR1-MDCK efflux ratio worked out at 1.55; the intrinsic clearance, human liver microsomes came out at 20.1 mL/min/kg; the intrinsic clearance, rat liver microsomes turned out to be 561 mL/min/kg.

As for `CCCn1cc(C(=O)N2CCC(c3n[nH]cc3C(=O)N3CCOCC3)CC2)cn1`, the MDR1-MDCK efflux ratio amounted to 15.3; the intrinsic clearance, human liver microsomes is at most 4.74 mL/min/kg; the intrinsic clearance, rat liver microsomes was 11.4 mL/min/kg; the aqueous solubility is 54.1 µg/mL (≈ 135 µM).

In the case of `O=C(O)c1cc(Cl)cc2cccnc12`, the intrinsic clearance, human liver microsomes was at most 4.74 mL/min/kg; the intrinsic clearance, rat liver microsomes was at most 10.7 mL/min/kg; the aqueous solubility worked out at 26.9 µg/mL (≈ 129 µM).

Take `Cc1cc(C(=O)Nc2ccc(C)c(C)c2)n(-c2ccccc2)n1`: the MDR1-MDCK efflux ratio worked out at 0.392; the intrinsic clearance, human liver microsomes came to 97 mL/min/kg; the intrinsic clearance, rat liver microsomes was determined as 2050 mL/min/kg; the aqueous solubility amounted to 3.93 µg/mL (≈ 12.9 µM).

As to `O=C(NCCN1CCC(O)(c2cccc(F)c2)CC1)c1cccc(F)c1`, the MDR1-MDCK efflux ratio came to 5.65; the intrinsic clearance, human liver microsomes turned out to be 9.11 mL/min/kg; the intrinsic clearance, rat liver microsomes came out at 245 mL/min/kg; the aqueous solubility is 53.5 µg/mL (≈ 148 µM).

In the case of `O=C(Nc1cccc2ncccc12)[C@H]1CCCN(S(=O)(=O)c2cccs2)C1`, the intrinsic clearance, human liver microsomes was 35.8 mL/min/kg and the intrinsic clearance, rat liver microsomes is 614 mL/min/kg.

Turning to `CCNC(=O)c1cc(N2CCC(N3CCCC3=O)CC2)ccn1`, the intrinsic clearance, human liver microsomes was at most 4.74 mL/min/kg and the intrinsic clearance, rat liver microsomes is at most 10.7 mL/min/kg.

On to `C/N=C(\NC#N)NCCSCc1nc[nH]c1C`, for which the intrinsic clearance, human liver microsomes is at most 4.74 mL/min/kg; the intrinsic clearance, rat liver microsomes was at most 10.7 mL/min/kg; the aqueous solubility amounted to 41.6 µg/mL (≈ 165 µM).

`CN(CCC#N)Cc1cc(C#N)ccc1F` registered an intrinsic clearance, human liver microsomes of at most 4.74 mL/min/kg; an intrinsic clearance, rat liver microsomes of at most 10.7 mL/min/kg; an aqueous solubility of 31.4 µg/mL (≈ 145 µM).

For the molecule `CN(C)CCOc1ccc(-c2nc(-c3ccncc3)c(-c3ccc4c(c3)CC/C4=N\O)[nH]2)cc1`, the MDR1-MDCK efflux ratio came to 4.8; the intrinsic clearance, human liver microsomes is 12.7 mL/min/kg; the intrinsic clearance, rat liver microsomes turned out to be 171 mL/min/kg; the aqueous solubility turned out to be 1.1 µg/mL (≈ 2.43 µM).

`CC(=O)N(C)[C@H]1CC2(CCN(C(=O)COc3cc(C)c(Cl)c(C)c3)CC2)OC[C@]1(C)O`: the MDR1-MDCK efflux ratio was determined as 8.59; the intrinsic clearance, human liver microsomes is 78.1 mL/min/kg; the intrinsic clearance, rat liver microsomes came out at 442 mL/min/kg.

Consider `CCc1cc(=O)[nH]c(SCCN2CCCCC2)n1`, for which the MDR1-MDCK efflux ratio came out at 3.43; the intrinsic clearance, human liver microsomes was at most 4.74 mL/min/kg; the intrinsic clearance, rat liver microsomes worked out at 441 mL/min/kg.

Consider `CN(C(=O)CNC(=O)c1ccccc1OCC(=O)Nc1ccc(Br)cc1)c1ccccc1`, for which the MDR1-MDCK efflux ratio came out at 3.43 and the aqueous solubility turned out to be 0.35 µg/mL (≈ 0.705 µM).

The molecule `COC(=O)c1ccc2c(c1)CCN2S(=O)(=O)c1ccc(Cl)c(C(F)(F)F)c1` displayed an aqueous solubility of 0.9 µg/mL (≈ 2.14 µM).

`CCOC(=O)CNC(=O)c1ccc(O)cc1O`: the MDR1-MDCK efflux ratio was determined as 0.704; the intrinsic clearance, human liver microsomes is 34.3 mL/min/kg; the intrinsic clearance, rat liver microsomes came out at 114 mL/min/kg; the aqueous solubility is 36.2 µg/mL (≈ 151 µM).

In turn, `CN(C)c1cccc(C2CCN(c3ncccn3)CC2)n1` showed an intrinsic clearance, human liver microsomes of 94.4 mL/min/kg; an intrinsic clearance, rat liver microsomes of 2250 mL/min/kg; an aqueous solubility of 16.9 µg/mL (≈ 59.5 µM).

For the molecule `CCc1ccccc1S(=O)(=O)NCCc1cn[nH]c1`, the MDR1-MDCK efflux ratio was determined as 2.65; the intrinsic clearance, human liver microsomes is 34.8 mL/min/kg; the intrinsic clearance, rat liver microsomes was determined as 533 mL/min/kg.

On to `COc1cc(/C=C/c2nccc(C#N)n2)ccc1F`, for which the aqueous solubility was 3.27 µg/mL (≈ 12.8 µM).

`Cc1ccc(NC(=O)c2ccn(C(C)C)n2)cc1N1C(=O)CCC1=O`: the intrinsic clearance, human liver microsomes is at most 4.74 mL/min/kg and the intrinsic clearance, rat liver microsomes turned out to be 19.2 mL/min/kg.

`COc1ccc(OCc2n[nH]c(-c3n[nH]c4c3CCC4)n2)cc1`: the MDR1-MDCK efflux ratio stood at 2.2; the intrinsic clearance, human liver microsomes came to 50.9 mL/min/kg; the intrinsic clearance, rat liver microsomes came out at 1070 mL/min/kg.

For `Cc1ccc(-n2cc(C)cn2)c(NC(=O)CN(C)C)c1`, the MDR1-MDCK efflux ratio amounted to 0.559; the intrinsic clearance, human liver microsomes came out at 120 mL/min/kg; the intrinsic clearance, rat liver microsomes came out at 436 mL/min/kg.

Regarding `CC(=O)N1CCN([C@H]2CCN(C(=O)c3cc4cc(Cl)ccc4o3)CC[C@@H]2O)CC1`, the MDR1-MDCK efflux ratio worked out at 37.8; the intrinsic clearance, human liver microsomes is 8.04 mL/min/kg; the intrinsic clearance, rat liver microsomes amounted to 96.9 mL/min/kg.

As to `CN(C)Cc1csc(-c2nccn2-c2ccc3c(c2)n(C)c(=O)n3C)c1`, the MDR1-MDCK efflux ratio was found to be 72.5; the intrinsic clearance, human liver microsomes was at most 4.74 mL/min/kg; the intrinsic clearance, rat liver microsomes came out at 38.2 mL/min/kg; the aqueous solubility was 31.4 µg/mL (≈ 85.6 µM).
